Laboratory results as given in patent US20250332300A1 (priority 2024, published 2025).
Where a name gives a salt, the structure may show the parent alone. Read-outs that look alike come from different tables or passages of the source. Positions of bridges follow the written chain, without caps; N, C: chain ends. Non-standard residues stand in square brackets, D forms with d. Residues, ends and D or L forms follow the SMILES beside them. *: point of attachment. DOTA = O=C(O)CN1CCN(CC(=O)O)CCN(CC(=O)*)CCN(CC(=O)O)CC1; PEG10 = NCCOCCOCCOCCOCCOCCOCCOCCOCCOCCOCCC(=O)O; Trp(5-OH) = N[C@@H](Cc1c[nH]c2ccc(O)cc12)C(=O)O; NMePhe(4-F) = CN[C@@H](Cc1ccc(F)cc1)C(=O)O; NMehPhe = CN[C@@H](CCc1ccccc1)C(=O)O; Aad = N[C@@H](CCCC(=O)O)C(=O)O; Gly(cPr) = N[C@H](C(=O)O)C1CC1; aThr = C[C@H](O)[C@H](N)C(=O)O; NMeK = CN[C@@H](CCCCN)C(=O)O; NMeDap = CN[C@@H](CN)C(=O)O

How the values were obtained:
Format in all cases: binding
human HER2 (23-652) [1] = molecular target: T1, human HER2 (23-652) (Homo sapiens, UniProt P04626); experiment: TR-FRET competition assay for peptide potency, human HER2; set-up: towards human HER2 (23-652) and mouse HER2 (23-653); made in house; host or cells: mammalian cells; details: read-out: huHER2 TR-FRET IC50
Procedure: (§1) Both proteins containing a His-, Avi-tag and biotin in Nterminus, were expressed in mammalian cells and produced in house. […] Standard assay conditions consist of 20 uL total volume in white 384-well plates (Greiner), in 10 mM HEPES buffer containing 150 mM NaCl, 3 mM EDTA, 0.05% Tween20 and 1% final DMSO. […] The ratiometric FRET assay readout is calculated from the ratio of the raw data of the two distinct fluorescence signals measured in time resolved mode (fluorescence 665 nm/fluorescence 620 nm). IC50 values were calculated with the standard Novartis in-house assay data analysis software (Helios software application, Novartis Institutes for BioMedical Research, unpublished) using the methods described in Comput. Methods. Programs. Biomed. 2006, 82, 31-37 (regression algorithms for nonlinear dose-response curve fitting).

human HER2 (23-652) [2] = molecular target: T1, human HER2 (23-652); experiment: Surface plasmon resonance (SPR) for assessment of peptide affinity, human HER2; set-up: towards human HER2 (23-652) and mouse HER2 (23-653); made in house; details: SPR, human HER2 extracellular domain, 25° C., 1:1 binding model; read-out: huHER2-SPR-ONC KD
Procedure: Each protein was immobilized either onto a SA sensorchip (Cytiva, BR-1005-31) or CM5 sensorchip (Cytiva, BR-1005-30) to a density of 800-2000 RU. […] For the assay setup the same conditions (flow rate, running buffer, peptide dilution) as described above were used. In a first step the Anti Fc IgG Ab (from Human Antibody Capture Kit, Ref. 29234600, Cytiva) was diluted into acetate pH 5.0 at 25 ug/mL and immobilized at a flow rate of 10 uL/min over 360 s to reach a density around 6000 RU. […] The peptides were tested with an association time of 280 s followed by a dissociation time of 3000 s at a flow rate of 30 uL/min. The regeneration was done using 3 M magnesium chloride regeneration solution as obtained with a contact time of 30 s at a flow rate of 10 uL/min. Curve fitting was performed using the BiacoreTM 8K evaluation software.

mouse HER2 (23-653) = mouse HER2 (23-653) (Mus musculus, UniProt P70424); experiment: TR-FRET competition assay for peptide potency, mouse HER2; set-up: mouse HER2 (23-653) using a Cy5 labeled peptide as a probe; made in house; host or cells: mammalian cells; details: TR-FRET competition with Cy5 labeled peptide probe, 0.1 nM mouse HER2, 24 h incubation; read-out: moHER2 TR-FRET IC50
Procedure: as §1

[3] = TR-FRET competition with Cy5 labeled peptide probe, 0.1 nM human HER2, 24 h incubation

| SMILES | IC50 (human HER2 (23-652) [1]; [3]) [nM] | Kd (human HER2 (23-652) [2]) [nM] | IC50 (mouse HER2 (23-653)) [nM] | IC50 (human HER2 (23-652) [1]) [nM] |
| --- | --- | --- | --- | --- |
| CC(=O)NCCCC[C@H]1C(=O)N[C@@H](Cc2c[nH]c3ccc(O)cc23)C(=O)N[C@@H](Cc2c[nH]c3ccccc23)C(=O)N[C@@H](C2CC2)C(=O)N(C)[C@H](C(=O)N(C)[C@@H](Cc2ccc(F)cc2)C(=O)N[C@@H](CCCCNC(=O)CCC(C(=O)O)N2CCN(CC(=O)O)CCN(CC(=O)O)CC2)C(N)=O)CNC(=O)CCC[C@H](NC(C)=O)C(=O)N[C@@H](Cc2ccc(O)cc2)C(=O)N[C@@H](CO)C(=O)N(C)[C@@H](CCc2ccccc2)C(=O)N1C (single isomer, unassigned) [Example C34] | < 0.1 | < 0.1 | < 0.1 |  |
| CC(=O)NCCCC[C@H]1C(=O)N[C@@H](Cc2c[nH]c3ccc(O)cc23)C(=O)N[C@@H](Cc2c[nH]c3ccccc23)C(=O)N[C@@H]([C@H](C)O)C(=O)N(C)[C@H](C(=O)N(C)[C@@H](Cc2ccc(F)cc2)C(N)=O)CNC(=O)CCC[C@H](NC(C)=O)C(=O)N[C@@H](Cc2ccc(O)cc2)C(=O)N[C@@H](CO)C(=O)N(C)[C@@H](CCc2ccccc2)C(=O)N1C [Example A6, (3S,6S,9S,12S,15S,18S,21S,24S,27S)-9-((1H-indol-3-yl)methyl)-27-acetamido-15-(4-acetamidobutyl)-N-((S)-1-amino-3-(4-fluorophenyl)-1-oxopropan-2-yl)-12-((5-hydroxy-1H-indol-3-yl)methyl)-24-(4-hydroxybenzyl)-6-((S)-1-hydroxyethyl)-21-(hydroxymethyl)-N,4,16,19-tetramethyl-5,8,11,14,17,20,23,26,31-nonaoxo-18-phenethyl-1,4,7,10,13,16,19,22,25-nonaazacyclohentriacontane-3-carboxamide] (Ac-[Aad]YS[NMehPhe][NMeK](Ac)[Trp(5-OH)]W[aThr][NMeDap][NMePhe(4-F)]-NH2; lactam 1-9) |  |  |  | 1.3 |
| COCCOCCOCCOCCOCCOCCOCCOCCOCCOCCOCCOCCC(=O)N[C@H]1CCCC(=O)NC[C@@H](C(=O)N(C)[C@@H](Cc2ccc(F)cc2)C(=O)N[C@@H](CCCCN)C(N)=O)N(C)C(=O)[C@H](C2CC2)NC(=O)[C@H](Cc2c[nH]c3ccccc23)NC(=O)[C@H](Cc2c[nH]c3ccc(O)cc23)NC(=O)[C@H](CCCCNC(C)=O)N(C)C(=O)[C@H](CCc2ccccc2)N(C)C(=O)[C@H](CO)NC(=O)[C@H](Cc2ccc(O)cc2)NC1=O [Example A43, TFA salt] |  | 0.2 | 0.2 | < 0.1 |
| CC(=O)NCCCC[C@H]1C(=O)N[C@@H](Cc2c[nH]c3ccc(O)cc23)C(=O)N[C@@H](Cc2c[nH]c3ccccc23)C(=O)N[C@@H](C2CC2)C(=O)N(C)[C@H](C(=O)N(C)[C@@H](Cc2ccc(F)cc2)C(=O)N[C@@H](CCCCN)C(N)=O)CNC(=O)CCC[C@H](NC(C)=O)C(=O)N[C@H](Cc2ccc(O)cc2)C(=O)N[C@H](CO)C(=O)N(C)[C@@H](CCc2ccccc2)C(=O)N1C [Example A48, TFA salt] |  |  | > 10000 | 8300 |
| CC(=O)NCCCC[C@H]1C(=O)N[C@@H](Cc2c[nH]c3ccc(O)cc23)C(=O)N[C@@H](Cc2c[nH]c3ccccc23)C(=O)N[C@@H](C2CC2)C(=O)N(C)[C@H](C(=O)N(C)[C@@H](Cc2ccc(F)cc2)C(=O)N[C@@H](CCCCNC(=O)CN2CCN(CC(=O)O)CCN(CC(=O)O)CC2)C(N)=O)CNC(=O)CCC[C@H](NC(C)=O)C(=O)N[C@@H](Cc2ccc(O)cc2)C(=O)N[C@@H](CO)C(=O)N(C)[C@@H](CCc2ccccc2)C(=O)N1C [Example B10] |  | < 0.1 | < 0.1 | < 0.1 |
| COCCOCCOCCOCCOCCOCCOCCOCCOCCOCCOCCOCCC(=O)N[C@H]1CCCC(=O)NC[C@@H](C(=O)N(C)[C@@H](Cc2ccc(F)cc2)C(=O)N[C@@H](CCCCNC(=O)CN2CCN(CC(=O)O)CCN(CC(=O)O)CC2)C(N)=O)N(C)C(=O)[C@H](C2CC2)NC(=O)[C@H](Cc2c[nH]c3ccccc23)NC(=O)[C@H](Cc2c[nH]c3ccc(O)cc23)NC(=O)[C@H](CCCCNC(C)=O)N(C)C(=O)[C@H](CCc2ccccc2)N(C)C(=O)[C@H](CO)NC(=O)[C@H](Cc2ccc(O)cc2)NC1=O [Example B11] |  | < 0.1 | 0.2 | < 0.1 |
| CC(=O)NCCCC[C@H]1C(=O)N[C@@H](Cc2c[nH]c3ccc(O)cc23)C(=O)N[C@@H](Cc2c[nH]c3ccccc23)C(=O)N[C@@H](C2CC2)C(=O)N(C)[C@H](C(=O)N(C)[C@@H](Cc2ccc(F)cc2)C(=O)N[C@@H](CCCCNC(=O)CC[C@H](C(=O)O)N2CCN(CC(=O)O)CCN(CC(=O)O)CCN(CC(=O)O)CC2)C(N)=O)CNC(=O)CCC[C@H](NC(C)=O)C(=O)N[C@@H](Cc2ccc(O)cc2)C(=O)N[C@@H](CO)C(=O)N(C)[C@@H](CCc2ccccc2)C(=O)N1C [Example B12] |  | < 0.1 | < 0.1 | < 0.1 |
| CC(=O)NCCCC[C@H]1C(=O)N[C@@H](Cc2c[nH]c3ccc(O)cc23)C(=O)N[C@@H](Cc2c[nH]c3ccccc23)C(=O)N[C@@H](C2CC2)C(=O)N(C)[C@H](C(=O)N(C)[C@@H](Cc2ccc(F)cc2)C(=O)N[C@@H](CCCCNC(=O)CN2CCN(CC(=O)O)CCN(CC(=O)O)CCN(CC(=O)O)CC2)C(N)=O)CNC(=O)CCC[C@H](NC(C)=O)C(=O)N[C@H](Cc2ccc(O)cc2)C(=O)N[C@H](CO)C(=O)N(C)[C@@H](CCc2ccccc2)C(=O)N1C [Example C3] | > 9500 |  | > 10000 |  |
| CC(=O)NCCCC[C@H]1C(=O)N[C@@H](Cc2c[nH]c3ccc(O)cc23)C(=O)N[C@@H](Cc2c[nH]c3ccccc23)C(=O)N[C@@H](C2CC2)C(=O)N(C)[C@H](C(=O)N(C)[C@@H](Cc2ccc(F)cc2)C(N)=O)CNC(=O)CCC[C@H](NC(=O)CCOCCOCCOCCOCCOCCOCCOCCOCCOCCOCCNC(=O)CN2CCN(CC(=O)O)CCN(CC(=O)O)CCN(CC(=O)O)CC2)C(=O)N[C@@H](Cc2ccc(O)cc2)C(=O)N[C@@H](CO)C(=O)N(C)[C@@H](CCc2ccccc2)C(=O)N1C [Example C5] ({DOTA-PEG10}-[Aad]YS[NMehPhe][NMeK](Ac)[Trp(5-OH)]W[Gly(cPr)][NMeDap][NMePhe(4-F)]-NH2; lactam 1-9) | 0.5 | 0.7 | 0.7 |  |
| CC(=O)NCCCC[C@H]1C(=O)N[C@@H](Cc2c[nH]c3ccc(O)cc23)C(=O)N[C@@H](Cc2c[nH]c3ccccc23)C(=O)N[C@@H](C2CC2)C(=O)N(C)[C@H](C(=O)N(C)[C@@H](Cc2ccc(F)cc2)C(N)=O)CNC(=O)CCC[C@H](NC(=O)CN2CCN(CC(=O)O)CCN(CC(=O)O)CCN(CC(=O)O)CC2)C(=O)N[C@@H](Cc2ccc(O)cc2)C(=O)N[C@@H](CO)C(=O)N(C)[C@@H](CCc2ccccc2)C(=O)N1C [Example C8] ({DOTA}-[Aad]YS[NMehPhe][NMeK](Ac)[Trp(5-OH)]W[Gly(cPr)][NMeDap][NMePhe(4-F)]-NH2; lactam 1-9) | 2.1 |  | 3.3 |  |
| CC(=O)N[C@H]1CCCC(=O)NC[C@@H](C(=O)N(C)[C@@H](Cc2ccc(F)cc2)C(=O)N[C@@H](CCCCNC(=O)CN2CCN(CC(=O)O)CCN(CC(=O)O)CCN(CC(=O)O)CC2)C(N)=O)N(C)C(=O)[C@H](C2CC2)NC(=O)[C@H](Cc2c[nH]c3ccccc23)NC(=O)[C@H](Cc2c[nH]c3ccc(O)cc23)NC(=O)[C@H](CCCCNC(=O)CO)N(C)C(=O)[C@H](CCc2ccccc2)N(C)C(=O)[C@H](CO)NC(=O)[C@H](Cc2ccc(O)cc2)NC1=O [Example C20] | 0.1 |  | 0.3 |  |
| CC(=O)NCCCC[C@H]1C(=O)N[C@@H](Cc2c[nH]c3ccc(O)cc23)C(=O)N[C@@H](C)C(=O)N[C@@H](C2CC2)C(=O)N(C)[C@H](C(=O)N(C)[C@@H](Cc2ccc(F)cc2)C(=O)N[C@@H](CCCCNC(=O)CN2CCN(CC(=O)O)CCN(CC(=O)O)CCN(CC(=O)O)CC2)C(N)=O)CNC(=O)CCC[C@H](NC(C)=O)C(=O)N[C@@H](Cc2ccc(O)cc2)C(=O)N[C@@H](CO)C(=O)N(C)[C@@H](CCc2ccccc2)C(=O)N1C [Example C32] (Ac-[Aad]YS[NMehPhe][NMeK](Ac)[Trp(5-OH)]A[Gly(cPr)][NMeDap][NMePhe(4-F)]K(DOTA)-NH2; lactam 1-9) | 9810 |  | > 10000 |  |
